Results taken from US8415351B2 (priority 2007, dated 2013).

How the values were obtained:
[1] = system: genotype 1b-Con1 subgenomic replicon cell line; experiment: microbe, parasite or virus in culture; format: cell-based, HCV; conditions: Hepatitis C virus, read-out: EC50 1b
[2] = system: genotype 1a-H77 subgenomic replicon cell line; experiment: microbe, parasite or virus in culture; format: cell-based, HCV; conditions: Hepatitis C virus, read-out: EC50 1a
[3] = target: T1, HCV polymerase 1A (Δ21 NS5B, H77) (Hepatitis C virus genotype 1a, UniProt P27958); experiment: biochemical; conditions: IC50 1a
T1 construct: 20 to 50 nM Δ21 NS5B
In short: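 Radiometric assay with Δ21 NS5B (H77): 20 μM CTP, 20 μM ATP, 1 μM ^3H-UTP, 5 nM template RNA, 2–4 h at room temperature. RNA precipitated with spermine, filter-captured and counted. IC50 from non-linear fit of retained cpm vs inhibitor concentration (tight-binding equation).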

[4] = target: T2, HCV polymerase 1B (Δ21 NS5B, BK) (Hepatitis C virus genotype 1b, UniProt P26663); experiment: biochemical
T2 construct: 20 to 50 nM Δ21 NS5B
In short: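 Δ21 NS5B (genotype 1b, BK […]) preincubated 15 min RT with inhibitor, 2 mM MnCl2, pH 7.4, 60–125 μM GTP; started with 20 μM CTP/ATP, 1 μM 3H-UTP, 5 nM template RNA, run 2–4 h RT. Spermine-precipitated RNA filter-captured, scintillation counted; IC50 from tight-binding (Morrison) fit.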

[5] = system: HCV; conditions: hepatitis C treatment regimens, background; cited from earlier work

T2 sequence (P26663 2420-2989, stated change not applied): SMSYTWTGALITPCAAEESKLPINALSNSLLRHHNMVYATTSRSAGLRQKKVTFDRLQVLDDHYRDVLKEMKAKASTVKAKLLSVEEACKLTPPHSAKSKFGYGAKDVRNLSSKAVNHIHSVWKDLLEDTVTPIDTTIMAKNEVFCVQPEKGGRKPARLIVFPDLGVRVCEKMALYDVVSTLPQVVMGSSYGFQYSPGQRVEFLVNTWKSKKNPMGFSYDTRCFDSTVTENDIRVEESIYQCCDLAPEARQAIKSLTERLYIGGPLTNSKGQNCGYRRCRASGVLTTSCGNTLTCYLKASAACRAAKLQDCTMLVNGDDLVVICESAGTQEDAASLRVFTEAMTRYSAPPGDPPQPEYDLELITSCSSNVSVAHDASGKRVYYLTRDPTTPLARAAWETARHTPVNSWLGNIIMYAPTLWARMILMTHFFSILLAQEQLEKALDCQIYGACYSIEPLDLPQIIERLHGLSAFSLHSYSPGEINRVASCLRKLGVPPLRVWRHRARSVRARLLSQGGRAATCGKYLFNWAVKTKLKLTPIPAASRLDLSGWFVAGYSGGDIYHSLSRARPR
T1 sequence (P27958 2421-2990, stated change not applied): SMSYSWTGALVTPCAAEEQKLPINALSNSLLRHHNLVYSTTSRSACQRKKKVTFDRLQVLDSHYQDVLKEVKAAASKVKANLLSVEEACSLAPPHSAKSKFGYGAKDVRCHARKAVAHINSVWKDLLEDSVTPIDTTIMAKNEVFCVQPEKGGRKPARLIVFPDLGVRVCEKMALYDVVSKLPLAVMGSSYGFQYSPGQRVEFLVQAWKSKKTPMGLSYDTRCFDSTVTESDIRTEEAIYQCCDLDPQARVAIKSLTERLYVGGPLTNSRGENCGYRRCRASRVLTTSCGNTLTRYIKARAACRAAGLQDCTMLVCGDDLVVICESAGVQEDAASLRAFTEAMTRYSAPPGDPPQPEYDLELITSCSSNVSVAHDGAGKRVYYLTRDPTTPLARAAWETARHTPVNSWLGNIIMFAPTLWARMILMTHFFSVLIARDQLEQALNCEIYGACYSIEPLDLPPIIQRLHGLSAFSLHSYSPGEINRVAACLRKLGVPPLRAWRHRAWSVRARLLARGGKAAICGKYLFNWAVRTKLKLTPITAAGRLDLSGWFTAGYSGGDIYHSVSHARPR

Compound | melting point | EC50 [1] | EC50 [2] | IC50 [3] | IC50 [4] | suppression of HCV levels / effectiveness [5]
CC(C)(C)c1cc(-n2ccc(=O)[nH]c2=O)cc(-c2ccc3cc(NS(C)(=O)=O)ccc3c2)c1Cl [IB-L0-2.14, N-(6-(3-tert-butyl-2-chloro-5-(2,4-dioxo-3,4-dihydropyrimidin-1(2H)-yl)phenyl)naphthalen-2-yl)methanesulfonamide] | > 280 °C | 10 to 100 nM | 100 to 1000 nM |  |  | 
CCOc1c(-c2ccc3cc(NS(C)(=O)=O)ccc3c2)cc(-n2ccc(=O)[nH]c2=O)cc1C(C)(C)C [IB-L0-2.23, N-(6-(3-tert-butyl-5-(2,4-dioxo-3,4-dihydropyrimidin-1(2H)-yl)-2-ethoxyphenyl)naphthalen-2-yl)methanesulfonamide] | 196 to 202 °C | 10 to 100 nM | 100 to 1000 nM |  |  | 
COc1c(-c2ccc3cc(NS(C)(=O)=O)ccc3c2)cc(-n2ccc(=O)[nH]c2=O)cc1C(C)(C)CO [IB-L0-2.54, N-(6-(5-(2,4-dioxo-3,4-dihydropyrimidin-1(2H)-yl)-3-(1-hydroxy-2-methylpropan-2-yl)-2-methoxyphenyl)naphthalen-2-yl)methanesulfonamide] | 256 to 257 °C | 10 to 100 nM | 10 to 100 nM |  |  | 
COc1c(-c2ccc3cc(NS(C)(=O)=O)ccc3c2)cc(-n2ccc(=O)[nH]c2=O)cc1-c1ccc(C)o1 [IB-L0-2.58, N-(6-(5-(2,4-dioxo-3,4-dihydropyrimidin-1(2H)-yl)-2-methoxy-3-(5-methylfuran-2-yl)phenyl)naphthalen-2-yl)methanesulfonamide] | 174 to 178 °C | < 10 nM | 10 to 100 nM |  |  | 
COc1c(-c2ccc3cc(NS(C)(=O)=O)ccc3c2)cc(-n2ccc(=O)[nH]c2=O)cc1C(F)(F)C(F)(F)F [IB-L0-2.60, N-(6-(5-(2,4-dioxo-3,4-dihydropyrimidin-1(2H)-yl)-2-methoxy-3-(perfluoroethyl)phenyl)naphthalen-2-yl)methanesulfonamide] | 162 to 165 °C | 10 to 100 nM | 100 to 1000 nM |  |  | 
COc1c(-c2ccoc2)cc(-n2ccc(=O)[nH]c2=O)cc1-c1ccc2c(c1)CC=C2CNS(C)(=O)=O [IB-L0-2.67, N-((6-(5-(2,4-dioxo-3,4-dihydropyrimidin-1(2H)-yl)-3-(furan-3-yl)-2-methoxyphenyl)-1H-inden-3-yl)methyl)methanesulfonamide] |  | 10 to 100 nM | 100 to 1000 nM | 10 to 100 nM | 10 to 100 nM | 
COc1c(-c2ccc3cc(NS(C)(=O)=O)ccc3c2)cc(-n2ccc(=O)[nH]c2=O)cc1C(C)(C)C(=O)O [IB-L0-2.77, 2-(5-(2,4-dioxo-3,4-dihydropyrimidin-1(2H)-yl)-2-methoxy-3-(6-(methylsulfonamido)naphthalen-2-yl)phenyl)-2-methylpropanoic acid] | > 300 °C |  |  |  |  | 
COc1c(C#C[Si](C)(C)C)cc(-n2ccc(=O)[nH]c2=O)cc1-c1ccc2cc(NS(C)(=O)=O)ccc2c1 [IB-L0-2.78, N-(6-(5-(2,4-dioxo-3,4-dihydropyrimidin-1(2H)-yl)-2-methoxy-3-((trimethylsilyl)ethynyl)phenyl)naphthalen-2-yl)methanesulfonamide] | 175 to 178 °C |  |  |  |  | 
COc1c(C#Cc2ccc(NS(C)(=O)=O)cc2C)cc(-n2ccc(=O)[nH]c2=O)cc1C(C)(C)C [IB-L2-1.1, N-(4-((3-tert-butyl-5-(2,4-dioxo-3,4-dihydropyrimidin-1(2H)-yl)-2-methoxyphenyl)ethynyl)-3-methylphenyl)methanesulfonamide] |  | < 10 nM | < 10 nM | < 10 nM | 10 to 100 nM | 
COc1c(C#Cc2cc(F)c(NS(C)(=O)=O)cc2C)cc(-n2ccc(=O)[nH]c2=O)cc1C(C)(C)C [IB-L2-1.3, N-(4-((3-tert-butyl-5-(2,4-dioxo-3,4-dihydropyrimidin-1(2H)-yl)-2-methoxyphenyl)ethynyl)-2-fluoro-5-methylphenyl)methanesulfonamide] |  | < 10 nM | 10 to 100 nM | < 10 nM | 10 to 100 nM | 
COc1c(C#Cc2cc(F)c(NS(C)(=O)=O)cc2C(F)(F)F)cc(-n2ccc(=O)[nH]c2=O)cc1C(C)(C)C [IB-L2-1.5, N-(4-((3-tert-butyl-5-(2,4-dioxo-3,4-dihydropyrimidin-1(2H)-yl)-2-methoxyphenyl)ethynyl)-2-fluoro-5-(trifluoromethyl)phenyl)methanesulfonamide] |  | 10 to 100 nM | 100 to 1000 nM | 10 to 100 nM | 10 to 100 nM | 
COc1c(C#Cc2ccc(NS(C)(=O)=O)cc2O)cc(-n2ccc(=O)[nH]c2=O)cc1C(C)(C)C [IB-L2-1.6, N-(4-((3-tert-butyl-5-(2,4-dioxo-3,4-dihydropyrimidin-1(2H)-yl)-2-methoxyphenyl)ethynyl)-3-hydroxyphenyl)fmethanesulfonamide] |  | < 10 nM | 10 to 100 nM | < 10 nM | 10 to 100 nM | 
COc1c(C#Cc2ccc(NS(C)(=O)=O)cn2)cc(-n2ccc(=O)[nH]c2=O)cc1C(C)(C)C [IB-L2-1.8, N-(6-((3-tert-butyl-5-(2,4-dioxo-3,4-dihydropyrimidin-1(2H)-yl)-2-methoxyphenyl)ethynyl)-pyridin-3-yl)methanesulfonamide] |  | < 10 nM | 10 to 100 nM | < 10 nM | 10 to 100 nM | 
COc1c(C#Cc2ccc(NS(C)(=O)=O)cc2C(=O)N2CCOCC2)cc(-n2ccc(=O)[nH]c2=O)cc1C(C)(C)C [IB-L2-1.11, N-(4-((3-tert-butyl-5-(2,4-dioxo-3,4-dihydropyrimidin-1(2H)-yl)-2-methoxyphenyl)ethynyl)-3-(morpholine-4-carbonyl)phenyl)methanesulfonamide] |  | 10 to 100 nM | 100 to 1000 nM | 10 to 100 nM | 10 to 100 nM | 
COc1c(C#Cc2ccc(NS(C)(=O)=O)cc2NC(C)=O)cc(-n2ccc(=O)[nH]c2=O)cc1C(C)(C)C [IB-L2-1.12, N-(2-((3-tert-butyl-5-(2,4-dioxo-3,4-dihydropyrimidin-1(2H)-yl)-2-methoxyphenyl)ethynyl)-5-(methylsulfonamido)phenyl)acetamide] |  | 10 to 100 nM | 100 to 1000 nM | 10 to 100 nM | 10 to 100 nM | 
COc1c(I)cc(-n2ccc(=O)[nH]c2=O)cc1C#Cc1ccc(NS(C)(=O)=O)cc1C [IB-L2-1.15, N-(4-((5-(2,4-dioxo-3,4-dihydropyrimidin-1(2H)-yl)-3-iodo-2-methoxyphenyl)ethynyl)-3-methylphenyl)methanesulfonamide] |  | 100 to 1000 nM | > 1000 nM | 100 to 1000 nM | 100 to 1000 nM | 
COc1c(C#Cc2ccc(NS(C)(=O)=O)c3ccccc23)cc(-n2ccc(=O)[nH]c2=O)cc1C(C)(C)C [IB-L2-2.1, N-(4-((3-tert-butyl-5-(2,4-dioxo-3,4-dihydropyrimidin-1(2H)-yl)-2-methoxyphenyl)ethynyl)-naphthalen-1-yl)methanesulfonamide] |  | 100 to 1000 nM | 100 to 1000 nM | 10 to 100 nM | 10 to 100 nM | 
COc1c(C(=O)Nc2ccc(NS(C)(=O)=O)cc2)cc(-n2ccc(=O)[nH]c2=O)cc1C(C)(C)C [IB-L3-1.1, 3-tert-butyl-5-(2,4-dioxo-3,4-dihydropyrimidin-1(2H)-yl)-2-methoxy-N-(4-(methylsulfon amido)phenyl)benzamide] |  | 10 to 100 nM | 100 to 1000 nM | 10 to 100 nM | 10 to 100 nM | 
CC(C)(C)c1cc(-n2ccc(=O)[nH]c2=O)cc(C(=O)Nc2ccc(NS(C)(=O)=O)cc2)c1O [IB-L3-1.2, 3-tert-butyl-5-(2,4-dioxo-3,4-dihydropyrimidin-1(2H)-yl)-2-hydroxy-N-(4-(methylsulfonamide)phenyl)benzamide] |  | 10 to 100 nM | 100 to 1000 nM | 10 to 100 nM | < 10 nM | 
Cc1cc(=O)[nH]c(=O)n1-c1cc(C(=O)Nc2ccc(NS(C)(=O)=O)cc2)c(O)c(C(C)(C)C)c1 [IB-L3-1.4, 3-tert-butyl-2-hydroxy-5-(6-methyl-2,4-dioxo-3,4-dihydropyrimidin-1(2H)-yl)-N-(4-(methylsulfonamido)phenyl)benzamide] |  | > 1000 nM | > 1000 nM | 100 to 1000 nM | 10 to 100 nM | 
COc1cc(NS(C)(=O)=O)ccc1C(=O)Nc1cc(-n2ccc(=O)[nH]c2=O)cc(C(C)(C)C)c1OC [IB-L4-1.1, N-(3-tert-butyl-5-(2,4-dioxo-3,4-dihydropyrimidin-1(2H)-yl)-2-methoxyphenyl)-2-methoxy-4-(methylsulfonamido)benzamide] |  | 10 to 100 nM | 100 to 1000 nM | < 10 nM | 10 to 100 nM | 
NC(=O)c1ncn([C@@H]2O[C@H](CO)[C@@H](O)[C@H]2O)n1 [ribavirin] |  |  |  |  |  | does not effectively suppress HCV levels
